Measurements published in patent US9149056B2, “Compositions and methods relating to carotenoids” (The Iams Company, priority 2011, dated 2015).

Columns and labels:
[1] = tested on: Caco-2 human intestinal cells; type: in vitro ADME; details: Caco-2, 18 h
Experimental: The interactions among beta-carotene (B), lutein (L), and astaxanthin (A) were examined using a Caco-2 cell model.
Caco-2 human intestinal cells were grown and maintained on transwell inserts (3.0 μm pores) according to protocol in Failla M L., Chitchumroonchokchai C. (2005) In vitro models as tools for screening the relative bioavailabilities of provitamin A carotenoids in foods. HarvestPlus Technical Monograph Series 3. 32 p. www.harvestplus.org/pdfs/tech03.pdf. Cultures were used at 21 days post-confluency (dpc).
The stock synthetic micelles (SM) containing either β-carotene (B), lutein (L), or astaxanthin (A) was prepared as described by Chitchumroonchokchai et al. (2004).
Treated cells were incubated in humidified environment of 95% air, 5% CO2 at 37° C. for 18 hours before spent medium in apical chamber (AP) and basolateral medium (BL) were collected. All samples were frozen at −80° C. under nitrogen until analysis. Carotenoid analysis in media and cells were quantified as described by Chitchumroonchokchai (See Chitchumroonchokchai C., Schwartz S J., Failla M L. Assessment of lutein bioavailability from meals and supplement using simulated digestion and Caco-2 human intestinal cells. J Nutr. 2004; 134:2280-2286). Protein content of cells was determined by the bicinchoninic acid assay (Pierce—www.piercenet.com/files/1296 as8.pdf). […]

Caco-2 cells = type: in vitro ADME; details: human, Caco-2, 4 h
Source text: An in vitro digestion coupled with intestinal culture model was developed to mimic the in vivo absorption of carotenoids. It is important to note that absorption as determined by in vitro digestion is highly correlated with data derived by sampling small intestinal luminal contents from human subjects fed carotenoid rich vegetables and bioavailability data from published human studies.
The interactions among beta-carotene (B), lutein (L), and astaxanthin (A) or astaxanthin ester (AE) were examined using the coupled simulated digestion/Caco-2 cell model. Cellular carotenoids after four hour incubation with micelles generated during simulated digestion of carotenoid-rich oil are presented in Table 2 below.
Simulated digestion: Non-fat yogurt (2.7 g) was homogenized in 10 mL 120 mM salt solution. The mixture was transferred to 50 mL glass test tube. Carotenoid rich oil was carefully added for each reaction (6 replicates per test oil), and total volume of oil was adjusted to 300 μL using soybean oil. The procedure for the simulated digestion followed the standard protocol (See Failla M L., Chitchumroonchokchai C. (2005) In vitro models as tools for screening the relative bioavailabilities of provitamin A carotenoids in foods. HarvestPlus Technical Monograph Series 3. 32 p. www.harvestplus.org/pdfs/tech03.pdf), except that reactions contained pancreatic enzymes and bile extract. […] After completing gastric and small intestinal digestion, an aliquot (9 ml.) of digesta was centrifuged at 12,000×g, 4° C. for 45 min. to isolate aqueous fraction containing micellar carotenoids from residual undigested materials. The aqueous fraction was passed through syringe filter (0.22 μm) to determine carotenoids that partitioned into either aqueous or micellar phase. Aliquots of digesta and aqueous fraction were stored at −20° C. for a maximum of one week before extraction. Beta-carotene and lutein was quantified according to Chitchumrronchokchai et al. (See Chitchumroonchokchai C., Schwartz S J., Failla M L. Assessment of lutein bioavailability from meals and supplement using simulated digestion and Caco-2 human intestinal cells. J Nutr. 2004; 134:2280-2286), and astaxanthin was measured as described in Lin W C et al. (Lin W C, Chien J T, Chen B H. Determination of carotenoids in spear shrimp shells (Parapenaeopsis hardwickii) by liquid chromatography. J Agric Food Chem. 2005 Jun. 29; 53(13):5144-9).
Cell uptake of carotenoids from micelles generated during digestion of oil enriched with individual carotenoids or mixtures of carotenoids: Caco-2 cells (HTB37; passages 25-28) obtained from ATCC ([…]) at passage 19 were maintained in 6-well plastic dishes. The cells were cultured in complete DMEM plus 15% heat inactivated FBS during replication phase. […]

| SMILES | % Increase in Carotenoid Cellular Uptake Compared to Single Carotenoid, B [1] | % Carotenoid Cellular Uptake, B (Caco-2 cells) | % Increase in Carotenoid Cellular Uptake, B (Caco-2 cells) | % Increase in Carotenoid Cellular Uptake Compared to Single Carotenoid, L [1] | % Carotenoid Cellular Uptake, L (Caco-2 cells) | % Increase in Carotenoid Cellular Uptake, L (Caco-2 cells) |
| --- | --- | --- | --- | --- | --- | --- |
| CC1=C(/C=C/C(C)=C/C=C/C(C)=C/C=C/C=C(C)/C=C/C=C(C)/C=C/C2=C(C)CCCC2(C)C)C(C)(C)CCC1 [Beta-carotene, beta-carotene] | 0.00% | 5.70% | 0.00% |  |  |  |
| CC1=C[C@H](O)CC(C)(C)[C@H]1/C=C/C(C)=C/C=C/C(C)=C/C=C/C=C(C)/C=C/C=C(C)/C=C/C1=C(C)C[C@@H](O)CC1(C)C [Lutein, lutein] |  |  |  | 0.00% | 6.02% | 0.00% |
